Earlier results as cited in patent EP4702989A1, “DRUG FOR TREATING LOCALLY ADVANCED UNRESECTABLE OR METASTATIC COLORECTAL CANCER AND USE THEREOF” (Shenzhen Chipscreen Biosciences Co., Ltd., priority 2023, dated 2024).
Like-named read-outs stand apart in the source and are kept apart here.

Key:
[1] = FRESCO-2; >=3 treatment lines; sample size 461; 2023 Lancet
[2] = FRESCO; >=3 treatment lines; sample size 278; 2018 JAMA
[3] = CORRECT; >=2 treatment lines; sample size 505; 2013 Lancet
[4] = CONCUR; >=3 treatment lines; sample size 136; 2015 Lancet

Question: Which “Median PFS (months)” value [1] does the source give for `CNC(=O)c1c(C)oc2cc(Oc3ncnc4cc(OC)c(OC)cc34)ccc12` [Fruquintinib] here?
Answer: Its value is 3.7 months.

Question: And the ORR [1]?
Answer: Its ORR is 1.5%.

Question: And the “Median PFS (months)” value [2]?
Answer: The value was 3.7 months.

Question: What about the ORR [2] of the same compound?
Answer: Its ORR is 4.7%.

Question: For `CNC(=O)c1cc(Oc2ccc(NC(=O)Nc3ccc(Cl)c(C(F)(F)F)c3)c(F)c2)ccn1` [Regorafenib], which “Median PFS (months)” value [3] is on record?
Answer: Its value is 1.9 months.

Question: What about the ORR [3] of the same compound?
Answer: The ORR was 1.0%.

Question: What about the “Median PFS (months)” value [4] of the same compound?
Answer: Its value is 3.2 months.

Question: What about the ORR [4] of the same compound?
Answer: The ORR was 4.4%.
